Data reported in patent US6531512B1, “Method of treating cancer in patients having a deficiency in p53 tumor suppressor gene” (Health Research Inc., priority 1998, dated 2003).

What was measured:
[1] = system: SK-MEL-28 human melanoma cells; experiment: Cell growth / apoptotic response of SK-MEL-28 cells (Coulter Counter, growth kinetics); type: cell-based; conditions: SK-MEL-28 cells; for % Control Growth: 24 hours, Table 4; for cell growth and/or apoptosis response: growth kinetic analysis
Procedure: (§1) MALME-3M human melanoma cells containing wt-p53 (American Tissue Type Culture Collection, Bethesda, Md.) and human SK-MEL-28 cells containing mt-p53 (American Tissue Type Culture Collection, Bethesda, Md.) were cultured as a monolayer in RPMI 1640 medium containing 10% Nu-Serum (Collaborative Research Products, Bedford, Mass.), 1 mM aminoguanidine, penicillin (50 units/ml) and streptomycin (50 μg/ml) as described by Kramer et al, J. Biol. Chem., 270:2124-32 (1995) and Kramer et al., Cancer Res., 57:5521-5527 (1997).
(§2) MALME-3M cells were cultured as described in Example 1. The cells were seeded by adding 1×10^5 cells to a T-25 vented cell culture flask. After 24 hours, the asynchronous cell cultures were treated with 10 μM N^1, N^11-diethylnorspermine (DENSPM) prepared by dissolving DENSPM in distilled water and sterilizing the solution by filtration through a 0.22 micron Millipore membrane. The cells were treated by continuous exposure to DENSPM for 6 days (i.e., the polyamine was added to the cell culture at T=0 and the culture was incubated for the desired amount of time). The number of viable MALME-3M cells were monitored electronically using a Model ZM Coulter Counter (Coulter Electronics, Hialeah, Fla.). Untreated MALME-3M cell cultures were used as controls.
(§3) MALME-3M human melanoma cells were cultured as described in Example 1 and treated continuously with 10 μM DENSPM or 10 μM spermine (SPM) for 48 hours. SK-MEL-28 cells were also cultured as described in Example 1 and treated with 10 μM DENSPM for 24 hours. Untreated cells were used as a control.
The effect of DENSPM and spermine on cell growth was monitored using a Coulter Counter (see Example 2). The effect on cell cycle was monitored by flow cytometry as described in Example 3. […]

[2] = system: ornithine decarboxylate (ODC); experiment: Polyamine enzyme activity in treated melanoma cells: ODC; type: cell-based, human; conditions: for Enzyme Activities, ODC: SK-MEL-28 cells, 24 hours, Table 4
Procedure: as §3, with “treated” for “treated continuously”, “as described in Example 4.” for “for 48 hours.”, “as describe in Example 4.” for “for 24 hours.”
(§4) After treatment with DENSPM or spermine, biochemical parameters including polyamine enzymes activity, polyamine pools and analog accumulation were monitored as described by Kramer et al, J. Biol. Chem., 270:2124-32 (1995) and Kramer et al., Cancer Res., 57:5521-5527 (1997). Polyamine enzyme activity was monitored for ornithine […] (ODC); S-adenosylmethionine decarboxylase (SAMDC); and spermidine/spermine N^1-acetyltransferase (SSAT). Polyamine pools was monitored for putrescine (Put); spermidine (Spd); and spermine (Spm).
(§5) Enzyme activity and polyamine pools were measured as described in Example 5.

[3] = system: spermidine/spermine N^1-acetyltransferase (SSAT); experiment: Polyamine enzyme activity in treated melanoma cells: SSAT induction; type: cell-based, human; conditions: for Enzyme Activities, SSAT: Table 4
Procedure: as §3, with “treated” for “treated continuously”, “as described in Example 4.” for “for 48 hours.”, “as describe in Example 4.” for “for 24 hours.”
as §4, §5

[4] = system: SK-MEL-28 human melanoma cells; experiment: Polyamine pools and analog accumulation in SK-MEL-28 cells; type: cell-based; conditions: SK-MEL-28 cells, 24 hours; for Analog (intracellular accumulation) / Polyamine Pools, Put / Polyamine Pools, Spd / Polyamine Pools, Spm: Table 4
Procedure: as §3, with “treated” for “treated continuously”, “as described in Example 4.” for “for 48 hours.”, “as describe in Example 4.” for “for 24 hours.”
as §4, §5

[5] = system: MALME-3M human melanoma cells; experiment: Cell growth of MALME-3M cells (Coulter Counter); type: cell-based; conditions: 10 μM
Procedure: as §1, §2, §3
(§6) The effect of DENSPM and spermine on cell growth was monitored using a Coulter Counter (see Example 2). The effect on cell cycle was monitored by flow cytometry as described in Example 3.

[6] = system: MALME-3M human melanoma cells; experiment: Cell cycle distribution of MALME-3M cells by flow cytometry; type: cell-based; conditions: MALME-3M (wt-p53), asynchronous, 10 μM, 48 hours
Procedure: MALME-3M cells were cultured as described in Example 1 and treated with 10 μM DENSPM as described in Example 2. Cell cycle arrest was monitored using a FACScan flow cytometry unit (Becton Dickinson, San Jose, Calif.) according to the method of Krishan (1975) J. Cell Biol. 66:[…]. Untreated MALME-3M cell cultures were used as controls.
Cell cycle arrest of serum synchronized MALME-3M cells was also monitored using flow cytometry. MALME-3M cells were synchronized in G0/G1 by replacing cell culture media containing 10% NuSerum (see Example 1) with media lacking NuSerum and incubating the cultures for 120 hours. The synchronized cells were released by the addition of 10% NuSerum (control culture) or 10% NuSerum plus 10 μM DENSPM. The cells were then grown continuously in the presence of serum (control) or DENSPM for up to 96 hours. The untreated cells (control) re-established an asynchronous profile (i.e., progressed through the cell cycle) by 60 hours.
as §6

[7] = system: S-adenosylmethionine decarboxylase (SAMDC); experiment: Polyamine enzyme activity in treated melanoma cells: SAMDC; type: cell-based, human; conditions: MALME-3M (wt-p53), 10 μM, Table 2 (24 hours treatment)
Procedure: as §3, with “treated” for “treated continuously”, “as described in Example 4.” for “for 48 hours.”, “as describe in Example 4.” for “for 24 hours.”
as §4

[8] = system: MALME-3M human melanoma cells; experiment: Polyamine pools in MALME-3M cells; type: cell-based; conditions: MALME-3M (wt-p53), 10 μM, Table 2 (24 hours treatment)
Procedure: as §3, with “treated” for “treated continuously”, “as described in Example 4.” for “for 48 hours.”, “as describe in Example 4.” for “for 24 hours.”
as §4

[9] = MALME-3M (wt-p53), 10 μM, Table 2 (24 hours treatment)

Analog (intracellular accumulation) [4] [pmol/10^6 cells]	SMILES	% Control Growth [1] [%]	cell growth and/or apoptosis response [1]	Enzyme Activities, ODC [2] [pmol/hr/mg protein]	SSAT activity ([3]; SK-MEL-28 cells, 24 hours)	Enzyme Activities, SSAT ([3]; SK-MEL-28 cells, 24 hours) [pmol/min/mg protein]	Polyamine Pools, Put [4] [pmol/10^6 cells]	Polyamine Pools, Spd [4] [pmol/10^6 cells]	Polyamine Pools, Spm [4] [pmol/10^6 cells]	further results
5950	CCNCCCCNCCCCNCCCCNCC [DE-444, N^1,N^14-diethylhomospermine]	97	cytostatic response	14	930 pmol/min/mg	930	20	120	1015	decrease in spermine pools [4]: 65%
5830	CCNCCCNCCCCNCCCNCC [DE-343, N^1,N^12-diethylspermine]	59	apoptotic response similar to that by DENSPM with a 24 hour delay	23	9,470 pmol/min/mg	9470	60	60	200	SSAT activity relative to DE-444 (times higher) ([3]; SK-MEL-28 cells): 10 times; SSAT activity relative to DENSPM (fold less) ([3]; SK-MEL-28 cells): about 3 fold
	NCCCNCCCCNCCCN [SPM, spermine, reference compound]									% Control Growth ([5]; MALME-3M (wt-p53), 48 hours): 96%; % Growth Control ([5]; MALME-3M (wt-p53), Table 2 (24 hours treatment)): 97%; effect on growth or cell cycle compared to control cells ([5]; MALME-3M, 48 hours): no effect; % Total Cells at 48 hours, G1 [6]: 67%; % Total Cells at 48 hours, G2/M [6]: 10%; % Total Cells at 48 hours, S [6]: 23%; ODC activity [2, 9]: 175 pmol/hr/mg protein; SAMDC activity [7]: 20 pmol/hr/mg protein; SSAT activity [3, 9]: 210 pmol/min/mg; Polyamine Pools, Put [8]: <5 pmol/10^6 cells; Polyamine Pools, Spd [8]: 470 pmol/10^6 cells; Polyamine Pools, Spm [8]: 2430 pmol/10^6 cells
5610	CCNCCCCNCCCCNCCCNCC [DE-443, 3,7,12,17-tetraazanonadecane]	77	apoptotic response with a 48 hour delay	32	5,215 pmol/min/mg	5215	20	70	500	
